Laboratory results published in ChEMBL document CHEMBL1126805, “Synthesis and evaluation of a series of benzylaniline hydrochlorides as potential cytotoxic and antimitotic agents acting by inhibition of tubulin polymerization” (J Med Chem, 1993).

Assays:
[1] = system: OVCAR-3; assay: Tested for cytotoxicity against OVCAR-3 (ovarian cancer) cell line.; format: functional, Homo sapiens
[2] = biological target: Tubulin (Bos taurus, UniProt Q6B856+Q862F3); assay: In vitro inhibition of bovine electrophoretically homogeneous tubulin polymerization.; format: functional
[3] = system: CAKI-1; assay: Tested for cytotoxicity against CAKI-1 renal cancer; format: functional, Homo sapiens
[4] = system: DMS-273; assay: Tested for cytotoxicity against DMS 273 (small-cell lung cancer) cell line.; format: functional, Homo sapiens
[5] = system: NCI-H522; assay: Tested for cytotoxicity against NCI-H522 (non-small-cell lung cancer) cell line.; format: functional, Homo sapiens
[6] = system: HL-60; assay: Tested for cytotoxicity against human cancer cell lines HL-60(TB) (leukemia) cell line.; format: functional
[7] = system: M14; assay: Tested for cytotoxicity against M14 melanoma; format: functional, Homo sapiens; settings: Homo sapiens, M14
[8] = system: SF-295; assay: In vitro cytotoxicity against SF-295 (CNS cancer) cell line.; format: functional, Homo sapiens
[9] = system: COLO 205; assay: Tested for cytotoxicity against COLO 205 (colon cancer) cell line.; format: functional, Homo sapiens
[10] = system: M14; assay: (§1) Tested for cytotoxicity against M14 cell lines in melanoma; format: functional; settings: Homo sapiens
[11] = system: TK-10; assay: Tested for cytotoxicity against TK-10 cell lines in renal cancer; format: functional; settings: Homo sapiens
[12] = system: OVCAR-8; assay: Tested for cytotoxicity against OVCAR-8 cell lines in ovarian cancer; format: functional; settings: Homo sapiens
[13] = system: DMS-273; assay: Tested for cytotoxicity against DMS 273 cell lines in small-cell lung cancer; format: functional; settings: Homo sapiens
[14] = system: A549; assay: Tested for cytotoxicity against A549/ATCC cell lines in non-small-cell lung cancer; format: functional; settings: Homo sapiens
[15] = system: DLD-1; assay: Tested for cytotoxicity against DLD-1 cell lines in colon cancer; format: functional; settings: Homo sapiens
[16] = system: RXF 393; assay: Tested for cytotoxicity against RXF-393 cell lines in renal cancer; format: functional; settings: Homo sapiens
[17] = system: K562; assay: Tested for cytotoxicity against K-562 cell lines in leukemia; format: functional; settings: Homo sapiens
[18] = system: HOP-62; assay: Tested for cytotoxicity against HOP-62 cell lines in non-small-cell lung cancer; format: functional; settings: Homo sapiens
[19] = system: NCI-H522; assay: (§2) Tested for cytotoxicity against NCI-H522 cell lines in non-small-cell lung cancer; format: functional; settings: Homo sapiens
[20] = system: CCRF-CEM; assay: Tested for cytotoxicity against CCRF-CEM cell lines in leukemia; format: functional; settings: Homo sapiens
[21] = system: UACC-62; assay: Tested for cytotoxicity against UACC-62 cell lines in melanoma; format: functional; settings: Homo sapiens
[22] = system: SNB-75; assay: Tested for cytotoxicity against SNB-75 cell lines in CNS cancer; format: functional; settings: Homo sapiens
[23] = system: MOLT-4; assay: Tested for cytotoxicity against MOLT-4 cell lines in leukemia; format: functional; settings: Homo sapiens
[24] = system: SF-268; assay: Tested for cytotoxicity against SF-268 cell lines in CNS cancer; format: functional; settings: Homo sapiens
[25] = system: CAKI-1; assay: (§3) Tested for cytotoxicity against CAKI-1 cell lines in renal cancer; format: functional; settings: Homo sapiens
[26] = system: KM12; assay: Tested for cytotoxicity against KM12 cell lines in colon cancer; format: functional; settings: Homo sapiens
[27] = system: SW-620; assay: Tested for cytotoxicity against SW-620 cell lines in colon cancer; format: functional; settings: Homo sapiens
[28] = system: SF-539; assay: Tested for cytotoxicity against SF-539 cell lines in CNS cancer; format: functional; settings: Homo sapiens
[29] = system: SNB-78; assay: Tested for cytotoxicity against SNB-78 cell lines in CNS cancer; format: functional; settings: Homo sapiens
[30] = system: DMS-273; assay: Tested for cytotoxicity against DMS273 cell lines in small-cell lung cancer; format: functional; settings: Homo sapiens
[31] = system: HOP-92; assay: Tested for cytotoxicity against HOP-92 cell lines in non-small-cell lung cancer; format: functional; settings: Homo sapiens
[32] = system: NCI-H23; assay: Tested for cytotoxicity against NCI-H23 cell lines in non-small-cell lung cancer; format: functional; settings: Homo sapiens
[33] = system: 786-0; assay: Tested for cytotoxicity against 786-0 cell lines in renal cancer; format: functional; settings: Homo sapiens
[34] = system: HT-29; assay: Tested for cytotoxicity against HT-29 cell lines in colon cancer; format: functional; settings: Homo sapiens
[35] = system: COLO 205; assay: (§4) Tested for cytotoxicity against COLO 205 cell lines in colon cancer; format: functional; settings: Homo sapiens
[36] = system: SK-MEL-5; assay: Tested for cytotoxicity against SK-MEL-5 cell lines in melanoma; format: functional; settings: Homo sapiens
[37] = system: HL-60; assay: Tested for cytotoxicity against HL-60 (TB) cell lines in leukemia; format: functional; settings: Homo sapiens
[38] = system: DMS-114; assay: Tested for cytotoxicity against DMS114 cell lines in small-cell lung cancer; format: functional; settings: Homo sapiens
[39] = system: SN12C; assay: Tested for cytotoxicity against SN12C cell lines in renal cancer; format: functional; settings: Homo sapiens
[40] = system: M14; assay: as §1; format: functional; settings: Homo sapiens; remark: listed apart in the source
[41] = system: XF498; assay: Tested for cytotoxicity against XF 498 cell lines in CNS cancer; format: functional; settings: Homo sapiens
[42] = system: LOX IMVI; assay: Tested for cytotoxicity against LOX IMVI cell lines in melanoma; format: functional; settings: Homo sapiens
[43] = system: UO-31; assay: Tested for cytotoxicity against UO-31 cell lines in renal cancer; format: functional; settings: Homo sapiens
[44] = system: SNB-19; assay: Tested for cytotoxicity against SNB-19 cell lines in CNS cancer; format: functional; settings: Homo sapiens
[45] = system: SK-MEL-2; assay: Tested for cytotoxicity against SK-MEL-2 cell lines in melanoma; format: functional; settings: Homo sapiens
[46] = system: EKVX; assay: Tested for cytotoxicity against […] cell lines in non-small-cell lung cancer; format: functional; settings: Homo sapiens
[47] = system: HOP-18; assay: Tested for cytotoxicity against HOP-18 cell lines in non-small-cell lung cancer; format: functional; settings: Homo sapiens
[48] = system: COLO 205; assay: as §4; format: functional; settings: Homo sapiens; remark: listed apart in the source
[49] = system: OVCAR-5; assay: Tested for cytotoxicity against OVCAR-5 cell lines in ovarian cancer; format: functional; settings: Homo sapiens
[50] = system: LXFL 529; assay: Tested for cytotoxicity against LXFL529 cell lines in non-small-cell lung cancer; format: functional; settings: Homo sapiens
[51] = system: ACHN; assay: Tested for cytotoxicity against ACHN cell lines in renal cancer; format: functional; settings: Homo sapiens
[52] = system: IGROV-1; assay: Tested for cytotoxicity against IGROV1 cell lines in ovarian cancer; format: functional; settings: Homo sapiens
[53] = system: U-251; assay: Tested for cytotoxicity against U251 cell lines in CNS cancer; format: functional; settings: Homo sapiens
[54] = system: NCI-H322M; assay: Tested for cytotoxicity against NCI-H322M cell lines in non-small-cell lung cancer; format: functional; settings: Homo sapiens
[55] = system: NCI-H522; assay: as §2; format: functional; settings: Homo sapiens; remark: listed apart in the source
[56] = system: OVCAR-4; assay: Tested for cytotoxicity against OVCAR-4 cell lines in ovarian cancer; format: functional; settings: Homo sapiens
[57] = system: KM-20L2; assay: Tested for cytotoxicity against KM20L2 cell lines in colon cancer; format: functional; settings: Homo sapiens
[58] = system: RPMI-8226; assay: Tested for cytotoxicity against RPMI-8226 cell lines in leukemia; format: functional; settings: Homo sapiens
[59] = system: CAKI-1; assay: as §3; format: functional; settings: Homo sapiens; remark: listed apart in the source
[60] = system: HCT-116; assay: Tested for cytotoxicity against HCT116 cell lines in colon cancer; format: functional; settings: Homo sapiens
[61] = system: NCI-H460; assay: Tested for cytotoxicity against NCI-H460 cell lines in non-small-cell lung cancer; format: functional; settings: Homo sapiens
[62] = system: M19-MEL; assay: Tested for cytotoxicity against M19-MEL cell lines in melanoma; format: functional; settings: Homo sapiens
[63] = system: UACC-257; assay: Tested for cytotoxicity against UACC-257 cell lines in melanoma; format: functional; settings: Homo sapiens
[64] = system: SF-295; assay: (§5) Tested for cytotoxicity against SF-295 cell lines in CNS cancer; format: functional; settings: Homo sapiens
[65] = system: SF-295; assay: as §5; format: functional; settings: Homo sapiens; remark: listed apart in the source
[66] = system: Malme-3M; assay: Tested for cytotoxicity against MALME-3M cell lines in melanoma; format: functional; settings: Homo sapiens
[67] = system: HCT-15; assay: Tested for cytotoxicity against HCT-15 cell lines in colon cancer; format: functional; settings: Homo sapiens
[68] = system: A498; assay: Tested for cytotoxicity against A498 cell lines in renal cancer; format: functional; settings: Homo sapiens
[69] = system: OVCAR-3; assay: Tested for cytotoxicity against OVCAR-3 cell lines in ovarian cancer; format: functional; settings: Homo sapiens
[70] = system: SK-OV-3; assay: Tested for cytotoxicity against SK-OV-3 cell lines in ovarian cancer; format: functional; settings: Homo sapiens

Tubulin, sequence (Q6B856 whole entry): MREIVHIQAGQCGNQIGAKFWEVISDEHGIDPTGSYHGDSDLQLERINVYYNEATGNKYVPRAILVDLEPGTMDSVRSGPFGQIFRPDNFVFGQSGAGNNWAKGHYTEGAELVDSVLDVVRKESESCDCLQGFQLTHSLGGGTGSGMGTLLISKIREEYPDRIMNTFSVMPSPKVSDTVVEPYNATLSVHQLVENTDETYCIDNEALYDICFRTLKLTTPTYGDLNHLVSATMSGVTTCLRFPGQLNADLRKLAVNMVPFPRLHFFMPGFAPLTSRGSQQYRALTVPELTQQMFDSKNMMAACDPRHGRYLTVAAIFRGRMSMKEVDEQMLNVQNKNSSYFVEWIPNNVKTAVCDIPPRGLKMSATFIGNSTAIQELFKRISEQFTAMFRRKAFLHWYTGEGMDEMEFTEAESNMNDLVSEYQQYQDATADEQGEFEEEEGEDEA
Tubulin, sequence (Q862F3 whole entry): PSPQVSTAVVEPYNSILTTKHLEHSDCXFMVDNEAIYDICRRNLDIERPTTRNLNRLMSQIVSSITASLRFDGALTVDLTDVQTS

COc1ccc(/N=C/c2cc(OC)c(OC)c(OC)c2)cc1
GI50 ([1]; Homo sapiens, OVCAR-3): > 100000 nM | IC50 [2]: > 40000 nM | GI50 ([3]; Homo sapiens, CAKI-1): > 100000 nM | GI50 ([4]; Homo sapiens, DMS-273): 33000 nM | GI50 ([5]; Homo sapiens, NCI-H522): > 100000 nM

CCOc1ccc(/N=C/c2cc(OC)c(OC)c(OC)c2)cc1
GI50 ([1]; Homo sapiens, OVCAR-3): > 100000 nM | IC50 [2]: > 40000 nM | GI50 ([3]; Homo sapiens, CAKI-1): > 100000 nM | GI50 ([6]; Homo sapiens, HL-60): > 100000 nM | GI50 ([4]; Homo sapiens, DMS-273): > 100000 nM | GI50 ([5]; Homo sapiens, NCI-H522): > 100000 nM | GI50 [7]: > 100000 nM | GI50 ([8]; Homo sapiens, SF-295): > 100000 nM

CCc1ccc(NCc2cc(OC)c(OC)c(OC)c2)cc1
GI50 ([1]; Homo sapiens, OVCAR-3): 283 nM | IC50 [2]: 3000 nM | GI50 ([3]; Homo sapiens, CAKI-1): 354 nM | GI50 ([6]; Homo sapiens, HL-60): 168 nM | GI50 [4]: 135 nM | GI50 ([5]; Homo sapiens, NCI-H522): 234 nM | GI50 ([9]; Homo sapiens, COLO 205): 344 nM | GI50 [7]: 315 nM | GI50 ([8]; Homo sapiens, SF-295): 266 nM

COc1cc(CNc2ccc(C)cc2)cc(OC)c1OC
GI50 [10]: 292 nM | GI50 [11]: > 100000 nM | GI50 [12]: 759 nM | GI50 [13]: 104 nM | GI50 [14]: 513 nM | GI50 [15]: 575 nM | GI50 [16]: 112 nM | GI50 [17]: 100 nM | IC50 [2]: 3500 nM | GI50 [18]: 282 nM | GI50 [19]: 262 nM | GI50 [20]: 282 nM | GI50 [21]: 575 nM | GI50 [22]: 389 nM | GI50 [23]: 427 nM | GI50 [24]: 912 nM | GI50 [25]: 162 nM | GI50 [26]: 759 nM | GI50 [27]: 110 nM | GI50 [28]: 316 nM | GI50 [6]: 722 nM | GI50 [29]: 1100 nM | GI50 [30]: 93.3 nM | GI50 [31]: 18600 nM | GI50 [32]: 407 nM | GI50 [33]: 324 nM | GI50 [34]: 347 nM | GI50 [35]: 219 nM | GI50 [36]: 912 nM | GI50 [37]: 89.1 nM | GI50 [38]: 427 nM | GI50 [39]: 851 nM | GI50 [40]: < 10 nM | GI50 [41]: 468 nM | GI50 [42]: 851 nM | GI50 [43]: 832 nM | GI50 [44]: 295 nM | GI50 [45]: 132 nM | GI50 [46]: 741 nM | GI50 [47]: 37200 nM | GI50 [48]: 214 nM | GI50 [49]: 1350 nM | GI50 [50]: 631 nM | GI50 [51]: 97.7 nM | GI50 [52]: 708 nM | GI50 [53]: 331 nM | GI50 [54]: 501 nM | GI50 [55]: 204 nM | GI50 [56]: 21400 nM | GI50 [57]: 251 nM | GI50 [58]: 437 nM | GI50 [59]: 13.2 nM | GI50 [60]: 575 nM | GI50 [61]: 214 nM | GI50 [62]: 331 nM | GI50 [63]: > 100000 nM | GI50 [64]: 233 nM | GI50 [65]: 324 nM | GI50 [66]: 468 nM | GI50 [67]: 245 nM | GI50 [68]: > 100000 nM | GI50 [69]: 214 nM | GI50 [70]: 269 nM

COc1ccc(NCc2cc(OC)c(OC)c(OC)c2)cc1
GI50 [1]: 1960 nM | IC50 [2]: 8900 nM | GI50 [3]: 2500 nM | GI50 [6]: 834 nM | GI50 [4]: 534 nM | GI50 [5]: 2760 nM | GI50 [9]: 1660 nM | GI50 [7]: 2380 nM | GI50 [8]: 2320 nM
